What was measured:
wild-type HT1080 cells = test: FACS analysis of GF7/PI stained cells, radiation-induced changes in MI; assay type: cell-based, human; conditions: 4 mM caffeine, 9 Gy irradiation
Method: (§1) Mitotic index and the incidence of mitotic catastrophe were determined using mitotic cell specific antibodies (MCSA) as follows. Three different MCSA were compared using fluorescence activated cell sorting (FACS) based on immunofluorescence labeling with MCSA coupled with propidium iodide (PI) staining for DNA content. In this procedure, cells were washed, trypsinized, fixed with an equal volume of 70% ethanol (on ice), resuspended in a small volume of 1% BSA-PBS containing an MCSA, incubated for 1 hour at room temperature, and then washed and bound with secondary (fluorescently-labeled) antibody. The tested MCSA included MPM2 (available from Upstate Biotechnology, Cat. #05-368) and two antibodies provided by Dr. P. Davies (Albert Einstein College of Medicine), including the previously characterized TG3 (Anderson et al., 1998, Exp. Cell Res. 238: 498-502) and unpublished GF7 antibody.
(§2) FACS analysis of GF7/PI stained cells was used to analyze radiation-induced changes in the MI of HT1080 fibrosarcoma cells with different cell cycle checkpoint integrity status.

[1] = test system: HT1080 cells transduced with GSE56; test: as above; assay type: cell-based, human; conditions: 4 mM caffeine, 9 Gy irradiation
Method: as §1, §2

BJ-ELB cells [2] = test: Fluorescence microscopy of DAPI-stained cells (micronuclei, apoptotic morphology, mitotic index, mitotic figures)
BJ-ELB cells [3] = test: Cell growth / cell number by Coulter counter, doxorubicin-treated cells; assay type: cell-based, human
Method: These cell lines were cultured in a 4:1 mixture of DMEM and Medium 199, with 10% fetal calf serum, supplemented with glutamine, pyruvate, penicillin and streptomycin.
For comparative analysis of specific cellular responses, a concentration of 30 nM doxorubicin was chosen, which had approximately equal growth-inhibitory effect in both cell lines (FIG. 3B).

[4] = test system: panel of 14 solid tumor-derived cell lines; conditions: moderate equitoxic doses of doxorubicin, 14 lines, cited from earlier work
BJ-EN cells [5] = test: Cell growth / cell number by Coulter counter, doxorubicin-treated cells
BJ-EN cells [6] = test: Fluorescence microscopy of DAPI-stained cells (micronuclei, apoptotic morphology, mitotic index, mitotic figures)
[7] = after release from 30 nM doxorubicin (3 days)
[8] = day 2 after release from 30 nM doxorubicin
[9] = two days after release from 30 nM doxorubicin (3 days)
[10] = two days after release from doxorubicin

Q: What does the source list for Cn1c(=O)c2c(ncn2C)n(C)c1=O [caffeine]?
A: increase in MI after irradiation in the presence of caffeine (wild-type HT1080 cells): ~2 fold; increase in MI after irradiation in the presence of caffeine [1]: up to 3 fold

Q: Which “effect of addition of doxorubicin on mitosis” value (BJ-ELB cells [2]; 30 nM doxorubicin present) does the source give for COc1cccc2c1C(=O)c1c(O)c3c(c(O)c1C2=O)C[C@@](O)(C(=O)CO)C[C@@H]3O[C@H]1C[C@H](N)[C@H](O)[C@H](C)O1 [doxorubicin] here?
A: only partially inhibited

Q: What about the “fraction of cells with apoptotic morphology” value (BJ-ELB cells [2]; [7]) of the same compound?
A: 6.6%

Q: And the “mitotic index (MI)” value (BJ-ELB cells [2]; [8])?
A: 8.0%

Q: What about the micronucleated cell fraction (BJ-ELB cells [2]; [9]) of the same compound?
A: 26.4%

Q: And the “mitotic figures that represented anaphase or telophase” value (BJ-ELB cells [2]; [10])?
A: 1%

Q: And the normal mitotic figures (BJ-ELB cells [2]; [10])?
A: 8%

Q: What about the “change in cell number during doxorubicin treatment” value (BJ-ELB cells [3]; 30 nM doxorubicin, first day) of the same compound?
A: increased their number on the first day

Q: And the “change in cell number after release from the drug” value (BJ-ELB cells [3]; day 3 after release (3 dR) from 30 nM doxorubicin)?
A: decreased to the same value as at the time of doxorubicin addition

Q: What about the “lines that showed predominantly apoptotic response” value ([4]; all other lines developed mitotic catastrophe) of the same compound?
A: two

Q: What about the “lines that exhibited the senescent phenotype after doxorubicin treatment” value [4] of the same compound?
A: Eleven of 14

Q: What about the “change in cell number during doxorubicin treatment” value (BJ-EN cells [5]; 30 nM doxorubicin, 3 days, BJ-EN) of the same compound?
A: essentially no change in cell number

Q: What about the “resistance to doxorubicin (effect on cell growth)” value (BJ-EN cells [5]; 3-day exposure to different concentrations, BJ-EN compared with BJ-ELB, except for the lowest drug doses) of the same compound?
A: more resistant to doxorubicin than BJ-ELB cells

Q: What about the “change in cell number after release from the drug” value (BJ-EN cells [5]; three days in drug-free media after 30 nM doxorubicin for 3 days, BJ-EN) of the same compound?
A: did not change significantly

Q: What about the “effect of addition of doxorubicin on mitosis” value (BJ-EN cells [6]; 30 nM doxorubicin present) of the same compound?
A: immediate and complete cessation of mitosis

Q: And the “fraction of cells with apoptotic morphology” value (BJ-EN cells [6]; [7])?
A: 0.9%

Q: What about the “mitotic index (MI)” value (BJ-EN cells [6]; [8]) of the same compound?
A: 0.4%

Q: And the micronucleated cell fraction (BJ-EN cells [6]; [9])?
A: 1.7%

Q: What about the abnormal mitotic figures (BJ-EN cells [6]; [10]) of the same compound?
A: 40%

Q: What about the “mitotic figures that were metaphases and telophases” value (BJ-EN cells [6]; [10]) of the same compound?
A: 29%

Q: What about the normal mitotic figures (BJ-EN cells [6]; [10]) of the same compound?
A: 60%

— patent publication US20040091947A1, “Screening strategy for anticancer drugs” (priority 2002, published 2004)
